Data set [1] can be described thus: Hygroscopicity evaluation by DVS. It counts as physicochemical. The note with it: 25° C./80% RH, listed as crystal form B of the sulfate. The procedure: The hygroscopicity of the crystal form B of the sulfate, the crystal form A of the maleate and the crystal form C of the hydrochloride was evaluated by DVS. The water adsorption (second adsorption curve) of the three salt forms at 25° C./80% RH is 7.62%, 1.35% and 4.77% respectively.

Data set [2] can be described thus: Solid state stability (HPLC purity after storage). The format is physicochemical. The procedure:
The chemical stability of the samples was determined by HPLC after placing the crystal form B of the sulfate, the crystal form A of the maleate and the crystal form C of the hydrochloride at 25° C./60% RH and 40° C./75% RH for 1 week, respectively. For the maleate, additional stability data for one month and two months storage at 25° C./60% RH and 40° C./75% RH (open) were collected, and using the crystal form A of maleate as the starting sample, stability data for 24 hours storage at 60° C. (closed) were collected.

The nature of data set [3]: Dynamic solubility evaluation in water and biological menstruums. The conditions noted are these: for pH: solubility sample. The format is physicochemical. On the procedure: The dynamic solubility of the crystal form B of the sulfate, the crystal form A of the maleate and the crystal form C of the hydrochloride in water and three biological menstruums was evaluated.

Data set [4] can be described thus: in vitro. The note with it: human, Caco-2, pH 7.4. The procedure: The transport buffer solution was HBSS (Hanks' balanced salt solution) and 10 mM HEPES [N-(2-hydroxyethyl)piperazine-N-(2-ethanesulfonic acid) solution], with a pH value of 7.40±0.05; Caco-2 cells were purchased from ATCC.
Caco-2 cells were seeded at 1×10^5 cells/cm^2 in 96-well BD insert plates of polyethylene terephthalate (PET), and the medium was refreshed every 4-5 days until day 21-28 to form a confluent monolayer. Test compounds were tested in a two-way format at 2 μM in duplicate. Digoxin was added at 10 μM in the two-way format, and nadolol and metoprolol were added at 2 μM in the two-way format. Final concentration of DMSO was adjusted to less than 1%. The plates were incubated in a CO2 incubator at 37±1° C. for 2 h with 5% CO2 at saturated humidity without shaking. All samples were mixed with acetonitrile containing an internal standard, and centrifuged at 4000 rpm for 10 min. 100 microliters of supernatant was diluted with 100 microliters of distilled water for LC/MS/MS analysis. By LC/MS/MS analysis, the concentrations of the test compounds and the reference compound in the initial test article solution, the test article solution and the test compound solution using the peak area ratio of the analyte to the internal standard. After the transport test, the integrity of the Caco-2 cell monolayer was determined by fluorescein yellow exclusion reaction, and the apparent permeability coefficient and efflux ratio were calculated.

Where [5] appears, read: FaSSIF, 1 hour, 37° C., feeding 10 mg/mL.
The mark [6] stands for this setting: FaSSIF, 2 hours, 37° C., feeding 10 mg/mL.
The mark [7] stands for this setting: FaSSIF, 4 hours, 37° C., feeding 10 mg/mL.
Setting [8] is: FaSSIF, 24 hours, 37° C., feeding 10 mg/mL.
The mark [9] stands for this setting: FeSSIF, 1 hour, 37° C., feeding 10 mg/mL.
[10] abbreviates: FeSSIF, 2 hours, 37° C., feeding 10 mg/mL.
Setting [11] is: FeSSIF, 4 hours, 37° C., feeding 10 mg/mL.
The mark [12] stands for this setting: FeSSIF, 24 hours, 37° C., feeding 10 mg/mL.
[13] abbreviates: H2O, 1 hour, 37° C., feeding 10 mg/mL.
The mark [14] stands for this setting: H2O, 2 hours, 37° C., feeding 10 mg/mL.
Where [15] appears, read: H2O, 4 hours, 37° C., feeding 10 mg/mL.
Where [16] appears, read: H2O, 24 hours, 37° C., feeding 10 mg/mL.
The mark [17] stands for this setting: SGF, 1 hour, 37° C., feeding 10 mg/mL.
[18] abbreviates: SGF, 2 hours, 37° C., feeding 10 mg/mL.
[19] abbreviates: SGF, 4 hours, 37° C., feeding 10 mg/mL.
Setting [20] is: SGF, 24 hours, 37° C., feeding 10 mg/mL.

This is an account of results in patent US20240002404A1, “SALT OF PYRROLOPYRIMIDINE COMPOUND, CRYSTALLINE FORM THEREOF, AND APPLICATION THEREOF” (GUANGZHOU JOYO PHARMATECH CO., LTD, priority 2020, published 2024).

Structures can show the parent of a compound that is named as a salt. Where two headings read alike, the source gives them in different places.

Take `CN(c1ncnc2[nH]ccc12)[C@@H]1CCc2cc(C#N)nn2C1` [Crystal form B of sulfate]: the “water adsorption (second adsorption curve)” value in data set [1] came out at 7.62%. Also, the “Purity (area %)” value in data set [2] (25° C./60% RH, 1 week) was 97.98 area %; in data set [2] (40° C./75% RH, 1 week) it was 98.06 area %; in data set [2] (Initial), 98.40 area %. Moreover, the “Purity/Initial Purity (%)” value in data set [2] (25° C./60% RH, 1 week) is on record as 99.57%; in data set [2] (40° C./75% RH, 1 week), 99.65%. Besides, the “S: solubility” value in data set [3] (setting [5]) was 3400 µg/mL; in data set [3] (setting [6]), 3400 µg/mL; in data set [3] (setting [7]) it was 3300 µg/mL; in data set [3] (setting [8]) it was 2600 µg/mL; in data set [3] (setting [9]) it was 70 µg/mL; in data set [3] (setting [10]) it was 70 µg/mL. The “S: solubility” value in data set [3] (setting [11]) came to 60 µg/mL; in data set [3] (setting [12]), 50 µg/mL; in data set [3] (setting [13]), 3700 µg/mL; in data set [3] (setting [14]), 3800 µg/mL; in data set [3] (setting [15]), 3700 µg/mL; in data set [3] (setting [16]) it was 4000 µg/mL. Moreover, the “S: solubility” value in data set [3] (setting [17]) was 5300 µg/mL; in data set [3] (setting [18]), 5000 µg/mL; in data set [3] (setting [19]), 4800 µg/mL; in data set [3] (setting [20]), 5300 µg/mL. Moreover, the pH stood at 2.7 in data set [3] (FaSSIF, 1 hour); 2.6 in data set [3] (FaSSIF, 2 hours); 2.7 in data set [3] (FaSSIF, 4 hours); 2.4 in data set [3] (FaSSIF, 24 hours); 4.3 in data set [3] (FeSSIF, 1 hour); 4.3 in data set [3] (FeSSIF, 2 hours). Further, the pH in data set [3] (FeSSIF, 4 hours) is on record as 4.3; in data set [3] (FeSSIF, 24 hours), 4.4; in data set [3] (H2O, 1 hour), 2.0; in data set [3] (H2O, 2 hours), 2.2; in data set [3] (H2O, 4 hours) it was 2.1; in data set [3] (H2O, 24 hours), 1.9. Moreover, the pH in data set [3] (SGF, 1 hour) worked out at 1.7; in data set [3] (SGF, 2 hours), 1.8; in data set [3] (SGF, 4 hours), 1.8; in data set [3] (SGF, 24 hours), 1.6.

For the molecule `CN(c1ncnc2[nH]ccc12)[C@@H]1CCc2cc(C#N)nn2C1` [Crystal form A of maleate], the “S: solubility” value in data set [3] (setting [5]) turned out to be 980 µg/mL; in data set [3] (setting [6]) it was 960 µg/mL; in data set [3] (setting [7]), 980 µg/mL; in data set [3] (setting [8]) it was 770 µg/mL; in data set [3] (setting [9]), 60 µg/mL; in data set [3] (setting [10]), 50 µg/mL. The entries for the “S: solubility” value in data set [3] (setting [11]), in data set [3] (setting [12]) and in data set [3] (setting [16]) were 50 µg/mL, 30 µg/mL and 1700 µg/mL, respectively. Further, the solubility at 1 h in data set [3] (SGF, 37 °C, simulated gastric fluid, thermodynamic from solid, SGF, 1 hour, 37° C., feeding 10 mg/mL, read-out: S: solubility) is 6800 µg/mL; in data set [3] (water, 37 °C, water, thermodynamic from solid, H2O, 1 hour, 37° C., feeding 10 mg/mL, read-out: S: solubility) it was 2900 µg/mL. Also, the solubility at 2 h in data set [3] (SGF, 37 °C, simulated gastric fluid, thermodynamic from solid, SGF, 2 hours, 37° C., feeding 10 mg/mL, read-out: S: solubility) is 6400 µg/mL; in data set [3] (water, 37 °C, water, thermodynamic from solid, H2O, 2 hours, 37° C., feeding 10 mg/mL, read-out: S: solubility) it was 2800 µg/mL. For the same molecule, the solubility at 4 h is 6600 µg/mL in data set [3] (SGF, 37 °C, simulated gastric fluid, thermodynamic from solid, SGF, 4 hours, 37° C., feeding 10 mg/mL, read-out: S: solubility) and 2700 µg/mL in data set [3] (water, 37 °C, water, thermodynamic from solid, H2O, 4 hours, 37° C., feeding 10 mg/mL, read-out: S: solubility). For the same molecule, the solubility at 24 h in data set [3] (SGF, 37 °C, simulated gastric fluid, thermodynamic from solid, SGF, 24 hours, 37° C., feeding 10 mg/mL, read-out: S: solubility) is 3900 µg/mL.

In data set [4], `COCCc1ccc(OCC(O)CNC(C)C)cc1` (centres unmarked) [Metoprolol] gave a Papp A→B at 2 h, 2 μM of 18.1 ×10⁻⁶ cm/s.

As to `CN(c1ncnc2[nH]ccc12)[C@@H]1CCc2cc(C#N)nn2C1` [Crystal form C of hydrochloride], the “S: solubility” value was 670 µg/mL in data set [3] (setting [5]); 640 µg/mL in data set [3] (setting [6]); 590 µg/mL in data set [3] (setting [7]); 490 µg/mL in data set [3] (setting [8]); 20 µg/mL in data set [3] (setting [9]); 20 µg/mL in data set [3] (setting [10]). Moreover, the “S: solubility” value in data set [3] (setting [11]) stood at 20 µg/mL; in data set [3] (setting [12]), 10 µg/mL; in data set [3] (setting [13]), 2700 µg/mL; in data set [3] (setting [14]), 2400 µg/mL; in data set [3] (setting [15]) it was 2300 µg/mL; in data set [3] (setting [16]) it was 2000 µg/mL. The “S: solubility” value in data set [3] (setting [17]) is 5600 µg/mL; in data set [3] (setting [18]) it was 5300 µg/mL; in data set [3] (setting [19]) it was 5100 µg/mL; in data set [3] (setting [20]), 4300 µg/mL.

`C[C@H]1O[C@@H](O[C@H]2[C@@H](O)C[C@H](O[C@H]3[C@@H](O)C[C@H](O[C@H]4CC[C@@]5(C)[C@H](CC[C@@H]6[C@@H]5C[C@@H](O)[C@]5(C)[C@@H](C7=CC(=O)OC7)CC[C@]65O)C4)O[C@@H]3C)O[C@@H]2C)C[C@H](O)[C@@H]1O` [Digoxin]: in data set [4], the Papp A→B at 2 h, 2 μM amounted to 0.04 ×10⁻⁶ cm/s; the Papp B→A at 2 h, 2 μM was 13.9 ×10⁻⁶ cm/s; the efflux ratio at 2 h, 2 μM is 349.

What is called solubility is how much of the substance goes into solution per volume. What is called Papp A→B is how fast a substance crosses the layer from the apical side. Low readings indicate slow passage, high ones fast passage. Usually Papp B→A stands for the apparent permeability from the basolateral to the apical side of a cell layer. As usually defined, the efflux ratio is a quotient of directional permeabilities that is used to spot active efflux.
